Experimental data as given in ChEMBL document CHEMBL1201862, “PubChem BioAssay data set” (2004).
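Following 48 hours of exposure in 96-well plates, responses at five concentrations were used to interpolate endpoints linearly. GI50 = concentration required for 50% inhibition of growth.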 Active and inactive are the calls of the source. No stated cut-off is given here; in the data, active = GI50 up to about 1.1 µM and inactive = higher.

Assays:
Assay in all cases: NCI tumour cell line growth inhibition, 48 h
OVCAR-5 = test system: OVCAR-5
HCT-116 = test system: HCT-116
HCC 2998 = test system: HCC 2998
NCI/ADR-RES = test system: NCI/ADR-RES
SK-MEL-28 = test system: SK-MEL-28
UACC-257 = test system: UACC-257
MDA-MB-435 = test system: MDA-MB-435
EKVX = test system: EKVX
786-0 = test system: 786-0
HCT-15 = test system: HCT-15
KM12 = test system: KM12
OVCAR-8 = test system: OVCAR-8
SF-268 = test system: SF-268
DU-145 = test system: DU-145
RXF 393 = test system: RXF 393
T47D = test system: T47D
MOLT-4 = test system: MOLT-4
SN12C = test system: SN12C
U-251 = test system: U-251
ACHN = test system: ACHN

With `CSc1c2c(C)n[nH]c2nn1-c1ccccc1` the GI50 (OVCAR-5) was > 100 µM (inactive), the GI50 (HCT-116) was 45.4 µM (inactive) and the GI50 (HCC 2998) was 57.8 µM (inactive). The GI50 (NCI/ADR-RES) was > 100 µM (inactive), the GI50 (SK-MEL-28) was > 100 µM (inactive) and the GI50 (UACC-257) was > 100 µM (inactive). The GI50 (MDA-MB-435) was > 100 µM (inactive), the GI50 (EKVX) was 83.4 µM (inactive) and the GI50 (786-0) was 66.8 µM (inactive). For the same compound, the GI50 (HCT-15) was 37.2 µM, the GI50 (KM12) was 68.7 µM (inactive) and the GI50 (OVCAR-8) was 27.4 µM (inactive). The GI50 (SF-268) was 57.8 µM (inactive), the GI50 (DU-145) was 88.3 µM (inactive) and the GI50 (RXF 393) was 30.6 µM (inactive). The GI50 (T47D) was 85.1 µM (inactive), the GI50 (MOLT-4) was 42.6 µM (inactive) and the GI50 (SN12C) was > 100 µM (inactive). The GI50 (U-251) was 61.4 µM (inactive).
For `N#CC(=N)c1ncn(CCO)c1NC(=O)C(F)(F)F`, the GI50 (OVCAR-5) was > 100 µM (inactive), the GI50 (ACHN) was > 100 µM (inactive) and the GI50 (HCT-116) was > 100 µM (inactive). The GI50 (HCC 2998) was > 100 µM (inactive), the GI50 (NCI/ADR-RES) was > 100 µM (inactive) and the GI50 (SK-MEL-28) was > 100 µM (inactive). For the same compound, the GI50 (UACC-257) was > 100 µM (inactive), the GI50 (MDA-MB-435) was > 100 µM (inactive) and the GI50 (EKVX) was > 100 µM (inactive). The GI50 (786-0) was > 100 µM (inactive), the GI50 (HCT-15) was over 100 µM and the GI50 (KM12) was > 100 µM (inactive). For the same compound, the GI50 (OVCAR-8) was > 100 µM (inactive), the GI50 (SF-268) was > 100 µM (inactive) and the GI50 (DU-145) was > 100 µM (inactive). For the same compound, the GI50 (RXF 393) was > 100 µM (inactive), the GI50 (T47D) was > 100 µM (inactive) and the GI50 (SN12C) was > 100 µM (inactive). The GI50 (U-251) was > 100 µM (inactive).
In the case of `O=c1oc2ccccc2c(Nc2ccc3c(c2)S(=O)(=O)c2ccccc2O3)c1[N+](=O)[O-]`, the GI50 (OVCAR-5) is reported as 70 µM (inactive), the GI50 (ACHN) is reported as 22.1 µM (inactive) and the GI50 (HCT-116) is reported as 23.7 µM (inactive). For the same compound, the GI50 (HCC 2998) was 18.5 µM (inactive), the GI50 (NCI/ADR-RES) was 34.4 µM (inactive) and the GI50 (SK-MEL-28) was 18.1 µM (inactive). For the same compound, the GI50 (UACC-257) was 19.5 µM (inactive), the GI50 (MDA-MB-435) was 23.4 µM (inactive) and the GI50 (EKVX) was 30.6 µM (inactive). The GI50 (786-0) was 21.1 µM (inactive), the GI50 (HCT-15) was 25.8 µM and the GI50 (KM12) was 28.9 µM (inactive). For the same compound, the GI50 (OVCAR-8) was 25.2 µM (inactive), the GI50 (SF-268) was 33.8 µM (inactive) and the GI50 (DU-145) was 27.6 µM (inactive). For the same compound, the GI50 (RXF 393) was 19.5 µM (inactive), the GI50 (T47D) was 18.7 µM (inactive) and the GI50 (SN12C) was 25.6 µM (inactive). The GI50 (U-251) was 19.7 µM (inactive).
`C=C[C@@]1(C)CC[C@@H]2[C@@]3(C1)O[C@H]3CC1[C@](C)(C(=O)OC)CCC[C@@]12C` (some centres undefined) was tested, and the GI50 (OVCAR-5) was 16.9 µM (inactive), the GI50 (ACHN) was 16.1 µM (inactive) and the GI50 (HCT-116) was 13.7 µM (inactive). The GI50 (HCC 2998) was 17.3 µM (inactive), the GI50 (NCI/ADR-RES) was 20 µM (inactive) and the GI50 (SK-MEL-28) was 21.1 µM (inactive). For the same compound, the GI50 (UACC-257) was 19.3 µM (inactive), the GI50 (MDA-MB-435) was 34 µM (inactive) and the GI50 (EKVX) was 20.7 µM (inactive). For the same compound, the GI50 (786-0) was 20.3 µM (inactive), the GI50 (HCT-15) was 19.5 µM and the GI50 (KM12) was 35.6 µM (inactive). The GI50 (OVCAR-8) was 21.3 µM (inactive), the GI50 (SF-268) was 20.2 µM (inactive) and the GI50 (DU-145) was 30.4 µM (inactive). For the same compound, the GI50 (RXF 393) was 16.1 µM (inactive), the GI50 (T47D) was 20.7 µM (inactive) and the GI50 (MOLT-4) was 20 µM (inactive). The GI50 (U-251) was 21.1 µM (inactive).
`O=[N+]([O-])C(=C(N1CCOCC1)N1CCOCC1)/C(Cl)=C(\Cl)[N+](=O)[O-]` was tested, and the GI50 (OVCAR-5) was 14.6 µM (inactive), the GI50 (ACHN) was 6.31 µM (inactive) and the GI50 (HCT-116) was 2 µM (inactive). The GI50 (HCC 2998) was 20.4 µM (inactive), the GI50 (NCI/ADR-RES) was 21.4 µM (inactive) and the GI50 (SK-MEL-28) was 14.3 µM (inactive). For the same compound, the GI50 (UACC-257) was 5.55 µM (inactive), the GI50 (MDA-MB-435) was 10.3 µM (inactive) and the GI50 (EKVX) was 8.73 µM (inactive). The GI50 (786-0) was 3.69 µM (inactive), the GI50 (HCT-15) was 2.7 µM and the GI50 (KM12) was 16.3 µM (inactive). The GI50 (SF-268) was 10.6 µM (inactive), the GI50 (DU-145) was 7.45 µM (inactive) and the GI50 (RXF 393) was 1.77 µM (inactive). The GI50 (T47D) was 1.96 µM (inactive), the GI50 (MOLT-4) was 17.2 µM (inactive) and the GI50 (SN12C) was 2.01 µM (inactive). For the same compound, the GI50 (U-251) was 18.9 µM (inactive).
In the case of `CC(=O)O[C@H]1C[C@]2(O)[C@@H]3CC[C@@H]4C[C@@H](O)CC[C@]4(C)[C@H]3CC[C@]2(C)[C@H]1C1=CC(=O)OC1`, the GI50 (OVCAR-5) is reported as 0.182 µM (active), the GI50 (ACHN) is reported as 0.031 µM (active) and the GI50 (HCT-116) is reported as 0.033 µM (active). For the same compound, the GI50 (HCC 2998) was 0.161 µM (active), the GI50 (NCI/ADR-RES) was 0.074 µM (active) and the GI50 (SK-MEL-28) was 0.324 µM (active). For the same compound, the GI50 (UACC-257) was 0.18 µM (active), the GI50 (MDA-MB-435) was 0.179 µM (active) and the GI50 (EKVX) was 0.0458 µM (active). The GI50 (786-0) was 0.0455 µM (active), the GI50 (HCT-15) was 0.0843 µM and the GI50 (KM12) was 0.398 µM (active). For the same compound, the GI50 (OVCAR-8) was 0.0923 µM (active), the GI50 (SF-268) was 0.0429 µM (active) and the GI50 (DU-145) was 0.0316 µM (active). For the same compound, the GI50 (RXF 393) was 0.0324 µM (active), the GI50 (T47D) was 0.222 µM (active) and the GI50 (MOLT-4) was 0.0201 µM (active). For the same compound, the GI50 (SN12C) was 0.037 µM (active) and the GI50 (U-251) was 0.128 µM (active).
For `CO[C@H]1C[C@](C)(O)Cc2cc3c(c(O)c21)C(=O)c1c(O)cc2c(c1C3=O)O[C@@H]1O[C@@]2(C)[C@H](O)[C@@H](N(C)C)[C@@H]1O`, the GI50 (OVCAR-5) was 3.35 µM (inactive), the GI50 (ACHN) was 0.279 µM (active) and the GI50 (HCT-116) was 0.652 µM (active). For the same compound, the GI50 (HCC 2998) was 2.15 µM (inactive), the GI50 (NCI/ADR-RES) was 10 µM (inactive) and the GI50 (SK-MEL-28) was 5.82 µM (inactive). For the same compound, the GI50 (UACC-257) was 9.73 µM (inactive), the GI50 (MDA-MB-435) was 1.73 µM (inactive) and the GI50 (EKVX) was 3.55 µM (inactive). The GI50 (786-0) was 0.524 µM (active), the GI50 (HCT-15) was 1.23 µM and the GI50 (KM12) was 1.76 µM (inactive). The GI50 (OVCAR-8) was 0.9 µM (active), the GI50 (SF-268) was 1.22 µM (inactive) and the GI50 (DU-145) was 0.536 µM (active). For the same compound, the GI50 (RXF 393) was 1.17 µM (inactive), the GI50 (T47D) was 0.818 µM (active) and the GI50 (SN12C) was 0.499 µM (active). For the same compound, the GI50 (U-251) was 0.368 µM (active).
